Measurements reported in patent publication US20020137929A1, “1 - (3-heterocyclylphenyl) isothiourea, -isourea, -guanidine and -amidine herbicidal agents” (Intellectual Property Department, BASF Aktiengesellschaft, priority 1998, published 2002).

Tests used:
[1] = system: GLXMAW (Soybean, Williams); test: Postemergence herbicidal evaluation; type: in vivo, Glycine max, (L.) Merr. cv Williams; settings: for GLXMAW herbicidal rating: postemergence
Method in brief: (§1)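 Two-week-old seedlings sprayed with compound in 50/50 acetone/water plus 0.5% TWEEN 20, at about 0.0156 to 0.500 kg/ha, nozzle at 40 psi. Kept in greenhouse; rated visually 4-5 weeks after treatment on a 0-9 scale versus control, repeat tests averaged.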

ABUTH (Velvetleaf) = test: Postemergence herbicidal evaluation; type: in vivo, Abutilon theophrasti; settings: for ABUTH herbicidal rating: postemergence
Method in brief: as §1

AMBEL (Ragweed, Common) = test: Preemergence herbicidal evaluation; type: in vivo, Ambrosia artemisifolia; settings: rated 4-5 weeks after treatment
Method in brief: (§2)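 Seeds were planted in potting soil in cups, then sprayed preemergence with the test compound in aqueous acetone at about 0.0156 to 0.500 kg per hectare. Cups were kept under greenhouse conditions and visually rated 4–5 weeks after treatment on a 0–9 scale against an untreated control.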

[2] = system: CHEAL (Lambsquarters, Common); test: Postemergence herbicidal evaluation; type: in vivo, Chenopodium album; settings: for CHEAL herbicidal rating: postemergence
Method in brief: as §1

CYPIR (Rice Flatsedge) = test: Preemergence weed control under flooded paddy conditions; type: in vivo, Cyperus iria; settings: rated 3-4 weeks after treatment
Method in brief: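 Seeds or propagules sown in silt loam kept flooded 1.5-3 cm; compounds in 50/50 acetone/water pipetted into flood water at about 0.0313 to 0.500 kg/ha. Greenhouse; visual 0-9 rating versus untreated control 3-4 weeks after treatment.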

ORYSAT (Rice, Tebonnet) = test: Postemergence herbicidal evaluation; type: in vivo, Oryza sativa, (L.) Tebonnet; settings: for ORYSAT herbicidal rating: postemergence
Method in brief: as §1

GALAP (Galium) = test: Preemergence herbicidal evaluation; type: in vivo, Galium aparine; settings: rated 4-5 weeks after treatment
Method in brief: as §2

[3] = system: TRZAWR (Wheat, Winter, cv Riband); test: Postemergence herbicidal evaluation; type: in vivo, Triticum aestivum; settings: for TRZAWR herbicidal rating: postemergence
Method in brief: as §1

SETVI (Foxtail, Green) [4] = test: Postemergence herbicidal evaluation; type: in vivo, Setaria viridis; settings: for SETVI herbicidal rating: postemergence
Method in brief: as §1

[5] = system: ECHORC (Watergrass (Calif.)); test: Postemergence weed control under flooded paddy conditions; type: in vivo, Echinochloa oryzoides; settings: postemergence weeds
Method in brief: (§3)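 With weeds 3 to 5 cm tall and rice at the 1.5 to 2.5 leaf stage, containers were flooded and water held 1.5 to 3 cm above soil. Compounds in 50/50 v/v aqueous/acetone went into the flood water at about 0.0313 to 0.500 kg/ha a.i. Effects were visually rated 0–9 against controls after three to four weeks in the greenhouse.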

CYPSE (Flatsedge) = test: as above; type: in vivo, Cyperus serotinus; settings: postemergence weeds
Method in brief: as §3

SETVI (Foxtail, Green) [6] = test: Preemergence herbicidal evaluation; type: in vivo, Setaria viridis; settings: rated 4-5 weeks after treatment
Method in brief: as §2

[7] = system: SAGPY (Arrowhead (Pygmaea)); test: Postemergence weed control under flooded paddy conditions; type: in vivo, Sagittaria pygmaea; settings: postemergence weeds
Method in brief: as §3

ZEAMX (Corn, Field) = test: Postemergence herbicidal evaluation; type: in vivo, Zea mays; settings: for ZEAMX herbicidal rating: postemergence
Method in brief: as §1

[8] = Rate 0.0313 kg/ha, rated 3 to 4 weeks after treatment
[9] = Rate 0.0625 kg/ha, rated 3 to 4 weeks after treatment
[10] = Rate 0.1250 kg/ha, rated 3 to 4 weeks after treatment
[11] = Rate 0.2500 kg/ha, rated 3 to 4 weeks after treatment
[12] = rate 0.0313 kg/ha, 3-4 weeks after treatment
[13] = rate 0.0625 kg/ha, 3-4 weeks after treatment
[14] = rate 0.1250 kg/ha, 3-4 weeks after treatment
[15] = rate 0.2500 kg/ha, 3-4 weeks after treatment

COC(=O)[C@@H](Cc1ccccc1)N1C(=O)CSC1=Nc1cc(-n2c(=O)cc(C(F)(F)F)n(C)c2=O)c(F)cc1Cl [Compound 74, Methyl α-benzyl-2-{{2-chloro-5-[3,6-dihydro-3-methyl-2,6-dioxo-4-(trifluoromethyl)-1(2H)-pyrimidinyl]-4-fluorophenyl}imino}-4-oxo-3-thiazolidineacetate, D-]
9.0: ABUTH herbicidal rating (ABUTH (Velvetleaf); rate 0.0158 kg/ha) | ABUTH herbicidal rating (ABUTH (Velvetleaf); rate 0.0315 kg/ha) | ABUTH herbicidal rating (ABUTH (Velvetleaf); rate 0.0630 kg/ha) | Preemergence herbicidal rating AMBEL (AMBEL (Ragweed, Common); rate 0.1250 kg/ha) | Preemergence herbicidal rating AMBEL (AMBEL (Ragweed, Common); rate 0.2500 kg/ha) | CHEAL herbicidal rating ([2]; rate 0.0158 kg/ha) | CHEAL herbicidal rating ([2]; rate 0.0315 kg/ha) | Preemergence herbicidal rating GALAP (GALAP (Galium); rate 0.2500 kg/ha) | Herbicidal rating ECHORC [5, 9] | Herbicidal rating ECHORC [5, 10] | Herbicidal rating ECHORC [5, 11] | Herbicidal rating CYPSE (CYPSE (Flatsedge); [11]) | Preemergence herbicidal rating SETVI (SETVI (Foxtail, Green) [6]; rate 0.2500 kg/ha) | Herbicidal rating SAGPY [7, 11]
3.5: ORYSAT herbicidal rating (ORYSAT (Rice, Tebonnet); rate 0.0158 kg/ha) | TRZAWR herbicidal rating ([3]; rate 0.0158 kg/ha)
4.5: ORYSAT herbicidal rating (ORYSAT (Rice, Tebonnet); rate 0.0315 kg/ha) | TRZAWR herbicidal rating ([3]; rate 0.0315 kg/ha) | ZEAMX herbicidal rating (ZEAMX (Corn, Field); rate 0.0158 kg/ha)
1.0: Preemergence herbicidal rating AMBEL (AMBEL (Ragweed, Common); rate 0.0313 kg/ha) | SETVI herbicidal rating (SETVI (Foxtail, Green) [4]; rate 0.0158 kg/ha) | SETVI herbicidal rating (SETVI (Foxtail, Green) [4]; rate 0.0315 kg/ha) | Preemergence herbicidal rating SETVI (SETVI (Foxtail, Green) [6]; rate 0.0625 kg/ha)
6.0: TRZAWR herbicidal rating ([3]; rate 0.0630 kg/ha)
5.5: GLXMAW herbicidal rating ([1]; rate 0.0158 kg/ha) | ORYSAT herbicidal rating (ORYSAT (Rice, Tebonnet); rate 0.0630 kg/ha) | ZEAMX herbicidal rating (ZEAMX (Corn, Field); rate 0.0630 kg/ha)
2.0: SETVI herbicidal rating (SETVI (Foxtail, Green) [4]; rate 0.0630 kg/ha)
3.0: Preemergence herbicidal rating AMBEL (AMBEL (Ragweed, Common); rate 0.0625 kg/ha) | Herbicidal rating SAGPY [7, 8] | Herbicidal rating SAGPY [7, 9] | Herbicidal rating SAGPY [7, 10]
7.0: Herbicidal rating ECHORC [5, 8]
5.0: GLXMAW herbicidal rating ([1]; rate 0.0315 kg/ha) | Herbicidal rating CYPSE (CYPSE (Flatsedge); [9]) | Herbicidal rating CYPSE (CYPSE (Flatsedge); [10]) | ZEAMX herbicidal rating (ZEAMX (Corn, Field); rate 0.0315 kg/ha)
0.0: Preemergence herbicidal rating AMBEL (AMBEL (Ragweed, Common); rate 0.0156 kg/ha) | CYPIR herbicidal effect rating (CYPIR (Rice Flatsedge); 0.0313 kg/ha) | CYPIR herbicidal effect rating (CYPIR (Rice Flatsedge); 0.0625 kg/ha) | CYPIR herbicidal effect rating (CYPIR (Rice Flatsedge); 0.1250 kg/ha) | CYPIR herbicidal effect rating (CYPIR (Rice Flatsedge); 0.2500 kg/ha) | Preemergence herbicidal rating GALAP (GALAP (Galium); rate 0.0156 kg/ha) | Preemergence herbicidal rating GALAP (GALAP (Galium); rate 0.0313 kg/ha) | Preemergence herbicidal rating GALAP (GALAP (Galium); rate 0.0625 kg/ha) | Preemergence herbicidal rating GALAP (GALAP (Galium); rate 0.1250 kg/ha) | Herbicidal rating CYPSE (CYPSE (Flatsedge); [8]) | Preemergence herbicidal rating SETVI (SETVI (Foxtail, Green) [6]; rate 0.0156 kg/ha) | Preemergence herbicidal rating SETVI (SETVI (Foxtail, Green) [6]; rate 0.0313 kg/ha)
6.5: GLXMAW herbicidal rating ([1]; rate 0.0630 kg/ha)
4.0: Preemergence herbicidal rating SETVI (SETVI (Foxtail, Green) [6]; rate 0.1250 kg/ha)

CCOC(=O)CN1C(=O)C(CCO)S/C1=N/c1cc(-n2c(=O)cc(C(F)(F)F)n(C)c2=O)c(F)cc1Cl (centres unmarked) [Compound 49, Ethyl 2-{{2-chloro-5-[3,6-dihydro-3-methyl-2,6-dioxo-4-(trifluoromethyl)-1(2H)-pyrimidinyl]-4-fluorophenyl}imino}-5-(hydroxyethyl)-4-oxo-3-thiazolidineacetate]
8.0: Postemergence herbicidal rating GLXMAW ([1]; Rate 0.0625 kg/ha)
4.5: Postemergence herbicidal rating TRZAWR ([3]; Rate 0.0313 kg/ha) | Postemergence herbicidal rating TRZAWR ([3]; Rate 0.0625 kg/ha)
5.0: Herbicidal rating ECHORC [5, 14] | Preemergence herbicidal rating SETVI (SETVI (Foxtail, Green) [6]; rate 0.0625 kg/ha) | Preemergence herbicidal rating SETVI (SETVI (Foxtail, Green) [6]; rate 0.2500 kg/ha) | Postemergence herbicidal rating ZEAMX (ZEAMX (Corn, Field); rate 0.0156 kg/ha)
3.0: Postemergence herbicidal rating ORYSAT (ORYSAT (Rice, Tebonnet); Rate 0.0625 kg/ha) | Postemergence herbicidal rating SETVI (SETVI (Foxtail, Green) [4]; rate 0.0156 kg/ha) | Herbicidal rating CYPSE (CYPSE (Flatsedge); [13])
4.0: Postemergence herbicidal rating TRZAWR ([3]; rate 0.0156 kg/ha) | Postemergence herbicidal rating SETVI (SETVI (Foxtail, Green) [4]; Rate 0.0313 kg/ha) | Herbicidal rating CYPSE (CYPSE (Flatsedge); [15]) | Preemergence herbicidal rating SETVI (SETVI (Foxtail, Green) [6]; rate 0.0313 kg/ha) | Herbicidal rating SAGPY [7, 13]
7.5: Postemergence herbicidal rating GLXMAW ([1]; Rate 0.0313 kg/ha) | Postemergence herbicidal rating GLXMAW ([1]; rate 0.0156 kg/ha)
7.0: Herbicidal rating CYPIR (CYPIR (Rice Flatsedge); 0.2500 kg/ha) | Preemergence herbicidal rating GALAP (GALAP (Galium); rate 0.0625 kg/ha) | Preemergence herbicidal rating GALAP (GALAP (Galium); rate 0.1250 kg/ha) | Postemergence herbicidal rating SETVI (SETVI (Foxtail, Green) [4]; Rate 0.0625 kg/ha) | Herbicidal rating ECHORC [5, 15] | Herbicidal rating SAGPY [7, 15]
0.0: Preemergence herbicidal rating AMBEL (AMBEL (Ragweed, Common); rate 0.0156 kg/ha) | Preemergence herbicidal rating AMBEL (AMBEL (Ragweed, Common); rate 0.0313 kg/ha) | Herbicidal rating CYPIR (CYPIR (Rice Flatsedge); 0.0313 kg/ha) | Herbicidal rating CYPIR (CYPIR (Rice Flatsedge); 0.0625 kg/ha) | Preemergence herbicidal rating GALAP (GALAP (Galium); rate 0.0156 kg/ha) | Preemergence herbicidal rating GALAP (GALAP (Galium); rate 0.0313 kg/ha) | Herbicidal rating ECHORC [5, 12] | Preemergence herbicidal rating SETVI (SETVI (Foxtail, Green) [6]; rate 0.0156 kg/ha)
5.5: Postemergence herbicidal rating ZEAMX (ZEAMX (Corn, Field); Rate 0.0313 kg/ha)
1.0: Postemergence herbicidal rating ORYSAT (ORYSAT (Rice, Tebonnet); rate 0.0156 kg/ha)
6.0: Herbicidal rating SAGPY [7, 14] | Postemergence herbicidal rating ZEAMX (ZEAMX (Corn, Field); Rate 0.0625 kg/ha)
2.5: Postemergence herbicidal rating ORYSAT (ORYSAT (Rice, Tebonnet); Rate 0.0313 kg/ha)
2.0: Herbicidal rating CYPIR (CYPIR (Rice Flatsedge); 0.1250 kg/ha) | Herbicidal rating ECHORC [5, 13] | Herbicidal rating CYPSE (CYPSE (Flatsedge); [12]) | Herbicidal rating SAGPY [7, 12]
9.0: Postemergence herbicidal rating ABUTH (ABUTH (Velvetleaf); Rate 0.0313 kg/ha) | Postemergence herbicidal rating ABUTH (ABUTH (Velvetleaf); Rate 0.0625 kg/ha) | Postemergence herbicidal rating ABUTH (ABUTH (Velvetleaf); rate 0.0156 kg/ha) | Preemergence herbicidal rating AMBEL (AMBEL (Ragweed, Common); rate 0.0625 kg/ha) | Preemergence herbicidal rating AMBEL (AMBEL (Ragweed, Common); rate 0.1250 kg/ha) | Preemergence herbicidal rating AMBEL (AMBEL (Ragweed, Common); rate 0.2500 kg/ha) | Postemergence herbicidal rating CHEAL ([2]; Rate 0.0313 kg/ha) | Postemergence herbicidal rating CHEAL ([2]; Rate 0.0625 kg/ha) | Postemergence herbicidal rating CHEAL ([2]; rate 0.0156 kg/ha) | Preemergence herbicidal rating GALAP (GALAP (Galium); rate 0.2500 kg/ha)
